Values of other authors, collected in patent US20090285869A1, “SALT STABLE LECITHIN ORGANOGEL COMPOSITION” (Humco Holding Group, Inc., priority 2008, published 2009).

Conditions: non-ionic O/W and W/O emulsifiers; scale from 0 to 20

Molecule | Approximate HLB value
CCCCCCCCCCCC(=O)OCC(O)CO (stereo not drawn) [Glyceryl Laurate] | ~5.2
CCCCCCCC/C=C\CCCCCCCC(=O)OCC(O)CO (stereo not drawn) [Glyceryl Oleate] | ~2.8
CCCCCC[C@@H](O)C/C=C\CCCCCCCC(=O)OCC(O)CO (stereo partly drawn) [Glyceryl Ricinoleate] | ~2.6
CCCCCCCCCCCCCCCCCC(=O)OCC(O)CO (stereo not drawn) [Glyceryl Stearate] | ~4.0
Ceteareth-6 | ~10.0
Ceteareth-12 | ~13.4
Ceteareth-20 | ~15.7
Ceteareth-25 | ~16.2
Glyceryl Dilaurate | ~4.0
Oleth-5 | ~9.0
Oleth-10 | ~12.4
Oleth-20 | ~15.5
